Results on five compounds are retold here after US11726083B2, “Method for testing drug response of cardiomyocytes” (Myoridge Co. Ltd., priority 2017, dated 2023).

This assay relates to cardiomyocytes prepared by inducing differentiation of a human iPS cell line (253G1). The note with it: for rate of change in heart rate / rate of change in Ca^2+ duration: 100% = no change.
The mark [1] stands for this setting: sample 5M: 300 μM, no hemoglobin, liquid-surface distance 6.67 mm.
[2] abbreviates: sample 5N: 300 μM, 2.0% by mass of hemoglobin, liquid-surface distance 1.0 mm.
Where [3] appears, read: sample 5P: 500 μM, 2.0% by mass of hemoglobin, liquid-surface distance 1.0 mm.
Setting [4] is: sample 2A: 100 nM, culture medium not containing hemoglobin, liquid-surface distance 6.67 mm.
Where [5] appears, read: sample 2C: 100 nM, 0.5 mass % hemoglobin, liquid-surface distance 6.67 mm.
[6] abbreviates: sample 2D: 1000 nM, 0.5 mass % hemoglobin, liquid-surface distance 6.67 mm.
Where [7] appears, read: sample 2E: 100 nM, 1.0 mass % hemoglobin, liquid-surface distance 6.67 mm.
[8] abbreviates: sample 2F: 1000 nM, 1.0 mass % hemoglobin, liquid-surface distance 6.67 mm.
Setting [9] is: sample 3A: 100 nM, liquid-surface distance 8.33 mm.
Where [10] appears, read: sample 3C: 100 nM, liquid-surface distance 6.67 mm.
Where [11] appears, read: sample 3E: 100 nM, liquid-surface distance 5.00 mm.
[12] abbreviates: sample 3G: 100 nM, liquid-surface distance 3.33 mm.
[13] abbreviates: sample 3H: 1000 nM, liquid-surface distance 3.33 mm.
[14] abbreviates: sample 3I: 100 nM, liquid-surface distance 1.67 mm.
Setting [15] is: sample 3J: 1000 nM, liquid-surface distance 1.67 mm.
[16] abbreviates: sample 4A: 100 nM, control container (polystyrene), liquid-surface distance 6.67 mm.
Setting [17] is: sample 4C: 100 nM, oxygen-permeable container (VECELL 96-well plate), liquid-surface distance 6.67 mm.

Where two headings read alike, the source gives them in different places.

Regarding `Cc1[nH]c(=O)c(C#N)cc1-c1ccncc1` [milrinone], the “expected drug response (tachycardic response)” value runs as follows: under setting [1], “not detected”; under setting [3], “detected”. The “pulsation (pulsation arrest)” value is, setting by setting: under setting [1], “did not stop”; under setting [2], “did not stop”; (sample 5O: 500 μM, no hemoglobin, liquid-surface distance 6.67 mm) “stopped at a high frequency”; under setting [3], “did not stop”. Moreover, the “rate of change in heart rate” value was 79% under setting [1], 118% under setting [2] and 154% under setting [3]. Further, the expected drug response result under setting [2] is “detected”.
Turning to `CC(C)(C)c1ccc(C(O)CCCN2CCC(C(O)(c3ccccc3)c3ccccc3)CC2)cc1` (stereo not shown) [terfenadine], the “pulsation (pulsation arrest)” value (sample 5I: 0.1 μM, no hemoglobin, liquid-surface distance 6.67 mm) is “did not stop”; the “pulsation (pulsation arrest)” value (sample 5J: 0.1 μM, 0.5% by mass of hemoglobin, liquid-surface distance 1.67 mm) is on record as “did not stop”; the “pulsation (pulsation arrest)” value (sample 5K: 0.7 μM, no hemoglobin, liquid-surface distance 6.67 mm) is given as “stopped at a high frequency”; the “pulsation (pulsation arrest)” value (sample 5L: 0.7 μM, 0.5% by mass of hemoglobin, liquid-surface distance 1.67 mm) was “did not stop”. For the same compound, the “rate of change in Ca^2+ duration” value is “about 135%” (sample 6A: 0.3 μM, 0.5% by mass of hemoglobin, liquid-surface distance 1.67 mm) and “about 170%” (sample 6B: 0.5 μM, 0.5% by mass of hemoglobin, liquid-surface distance 1.67 mm).
Consider `Cc1cccc(CCN2CCC(C(=O)c3ccc(NS(C)(=O)=O)cc3)CC2)n1` [E-4031], for which the “pulsation (pulsation arrest)” value reads like this: (sample 5E: 0.1 μM, no hemoglobin, liquid-surface distance 6.67 mm) “did not stop”; (sample 5F: 0.1 μM, 0.5% by mass of hemoglobin, liquid-surface distance 1.67 mm) “did not stop”; (sample 5G: 0.3 μM, no hemoglobin, liquid-surface distance 6.67 mm) “stopped at a high frequency”; (sample 5H: 0.3 μM, 0.5% by mass of hemoglobin, liquid-surface distance 1.67 mm) “did not stop”.
For the compound `CC(C)NCC(O)c1ccc(O)c(O)c1` (stereo not shown) [isoproterenol], the “expected drug response (tachycardic response)” value is reported as “detected” under setting [4], “detected” under setting [9] and “detected” under setting [16]. Besides, the “pulsation (pulsation arrest)” value was “did not stop” under setting [4]; “stopped at a high frequency” (sample 2B: 1000 nM, culture medium not containing hemoglobin, liquid-surface distance 6.67 mm); “did not stop” under setting [5]; “did not stop at all” under setting [6]; “did not stop” under setting [7]; “did not stop at all” under setting [8]. Besides, the “pulsation (pulsation arrest)” value runs as follows: under setting [9], “did not stop”; (sample 3B: 1000 nM, liquid-surface distance 8.33 mm) “stopped at a high frequency”; under setting [10], “did not stop”; (sample 3D: 1000 nM, liquid-surface distance 6.67 mm) “stopped at a high frequency”; under setting [11], “did not stop”; under setting [12], “did not stop”. In addition, the “pulsation (pulsation arrest)” value is listed as “hardly stopped” under setting [13]; “did not stop” under setting [14]; “did not stop at all” under setting [15]; “did not stop” under setting [16]; “stopped at a high frequency” (sample 4B: 1000 nM, control container (polystyrene), liquid-surface distance 6.67 mm); “did not stop” under setting [17]. For the same compound, the “pulsation (pulsation arrest)” value (sample 4D: 1000 nM, oxygen-permeable container (VECELL 96-well plate), liquid-surface distance 6.67 mm) is given as “stopped only at a low frequency”. Also, the expected drug response result by setting is: under setting [5], “detected”; under setting [6], “detected”; under setting [7], “detected”; under setting [8], “detected”; under setting [10], “detected”; under setting [11], “detected”. Further, the expected drug response result is reported as “detected” under setting [12]; “detected” under setting [13]; “detected” under setting [14]; “detected” under setting [15]; “detected” under setting [17]. Further, where the note is “sample 3F: 1000 nM, liquid-surface distance 5.00 mm”, the “frequency of the occurrence of the pulsation arrest” value is “about 50%”.
Consider “hemoglobin: bovine hemoglobin (Nacalai tesque 17553-92), oxygen carrier added to the culture medium”, for which the “occurrence of the pulsation arrest of the cardiomyocytes during the drug response testing” value (0.5 or 1.0 mass % hemoglobin added to the culture medium, isoproterenol 100/1000 nM, liquid-surface distance 6.67 mm (FIG. 3)) is listed as “suppressed”.
